Test results reported in US20040142821A1, “Pesticide composition comprising malononitrile compounds” (priority 2001, published 2004).

Assays:
Cullex pipiens pallens = experiment: whole plant or invertebrate; conditions: 24 h
Description: In 100 ml of ion-exchanged water, the test liquid had been prepared as described above, was added dropwise in an amount of 0.7 ml (the concentration of active ingredient was 3.5 ppm). Twenty final-instar larvae of Cullex pipiens pallens (common mosquito) were set free in the solution. After 1 days, their survival was examined to determine the mortality.

Musca domestics = experiment: Pesticidal test against Musca domestics, treated filter paper with sucrose bait (Test Example 5); format: in vivo; conditions: 500 ppm test liquid (Formulation Example 5), 0.7 ml on filter paper, ten female adults, after 24 hours
Description: Ten female adults of Musca domestics (house fly) were set free in the polyethylene cup, which was then kept covered. After 24 hours, their survival was examined to determine the mortality.

German cockroach = experiment: Pesticidal test against German cockroach, treated filter paper with sucrose bait (Test Example 6); format: in vivo; conditions: Blattella germanica, 144 h; 500 ppm test liquid (Formulation Example 5), 0.7 ml on filter paper; two male adults; after 6 days
Text: Two male adults of German cockroach (Blattalla germanica) were set free in the polyethylene cup, which was then kept covered. After 6 days, their survival was examined to determine the mortality.

[1] = system: Diabrotica undecimpunctata; experiment: Pesticidal test against Diabrotica undecimpunctata, treated filter paper (Test Example 4); format: in vivo, Diabrotica undecimpunctata (southern-corn rootworm); conditions: 50 ppm test liquid (Formulation Example 1), 1 ml on filter paper; 30 to 50 eggs and one germinated corn seed; 25° C.
Description: One germinated seed of corn and 30 to 50 eggs of Diabrotica undecimpunctata (southern-corn rootworm) was placed on the filter paper in the polyethylene cup, which was then kept covered and left in a room at 25° C. On the 6th day after, the number of surviving larvae of Diabrotica undecimpunctata was examined.

| SMILES | mortality at 3.5 µg/mL (Cullex pipiens pallens) | mortality at 500 ppm (Musca domestics) | mortality at 500 ppm (German cockroach) | number of surviving pests on the 6th day after [1] |
| --- | --- | --- | --- | --- |
| C=CCCC(C#N)(C#N)Cc1ccc(SC(F)(F)F)cc1 [Compound 42, 2-(3-butenyl)-2-(4-(trifluoromethylthio)benzyl)malononitrile] | 100% | 100% | 100% |  |
| C=CCC(C#N)(C#N)Cc1ccc(C(F)(F)F)c(F)c1 [Compound 69, 2-allyl-2-(3-fluoro-4-(trifluoromethyl)benzyl)malononitrile] | 100% | 100% | 100% |  |
| C=CCCC(C#N)(C#N)Cc1ccc(OC(F)(F)F)cc1 [Compound 15, 2-(3-butenyl)-2-(4-(trifluoromethoxy)benzyl)malononitrile] | 100% | 100% | 100% |  |
| C=CCCC(C#N)(C#N)C(c1ccc(Cl)cc1)C(C)C (centres unmarked) [Compound 26, 2-(3-butenyl)-2-(1-(4-chlorophenyl)-2-methylpropyl)malononitrile] | 100% |  |  | 0 |
| C=CCCC(C#N)(C#N)Cc1ccc(OC(F)F)cc1 [Compound 36, 2-(3-butenyl)-2-(4-(difluoromethoxy)benzyl)malononitrile] | 100% | 100% | 100% |  |
| CCCCC(C#N)(C#N)Cc1ccc(C(F)(F)F)cc1 [Compound 109, 2-butyl-2-(4-(trifluoromethyl)benzyl)malononitrile] | 100% | 100% | 100% |  |
| C=CCC(C#N)(C#N)C(OC)c1ccc(SC(F)(F)F)cc1 (stereo not drawn) [Compound 43, 2-allyl-2-(4-(trifluoromethylthio)-α-methoxybenzyl)malononitrile] | 100% | 100% | 100% |  |
| C=CCC(C#N)(C#N)Cc1ccc(C(F)(F)F)cc1Cl [Compound 58, 2-allyl-2-(2-chloro-4-(trifluoromethyl)benzyl)malononitrile] | 100% | 100% | 100% |  |
| C=CC(C)C(C#N)(C#N)Cc1ccc(SC(F)(F)F)cc1 (centres unmarked) [Compound 47, 2-(1-methyl-2-propenyl)-2-(4-(trifluoromethylthio)benzyl)malononitrile] | 100% | 100% | 100% |  |
| C=CCC(C#N)(C#N)Cc1ccc(C(F)(F)F)cc1C(F)(F)F [Compound 57, 2-allyl-2-(2,4-bis(trifluoromethyl)benzyl)malononitrile] | 100% | 100% | 100% |  |
| C=CCC(C#N)(C#N)Cc1c(Cl)cc(C(F)(F)F)cc1Cl [Compound 64, 2-allyl-2-(2,6-dichloro-4-(trifluoromethyl)benzyl)malononitrile] | 100% | 100% | 100% |  |
| C=CCC(C#N)(C#N)Cc1ccc(C(C)C)cc1 [Compound 102, 2-allyl-2-(4-isopropylbenzyl)malononitrile] | 100% | 100% | 100% |  |
| C=CCCCC(C#N)(C#N)Cc1ccc(Cl)cc1 [Compound 21, 2-(4-chlorobenzyl)-2-(4-pentenyl)malononitrile] | 100% |  |  | 0 |
| C=CCC(C#N)(C#N)Cc1cccc(OC(F)(F)F)c1 [Compound 89, 2-allyl-2-(3-(trifluoromethoxy)benzyl)malononitrile] | 100% | 100% | 100% |  |
| C=CCC(C#N)(C#N)Cc1cccc(Cl)c1 [Compound 17, 2-allyl-2-(3-chlorobenzyl)malononitrile] | 100% | 100% | 100% |  |
| C=CCCCC(C#N)(C#N)C(C)c1ccc(Cl)cc1 (centres unmarked) [Compound 76, 2-(1-(4-chlorophenyl)ethyl)-2-(4-pentenyl)malononitrile] | 100% |  |  | 0 |
| C=CCC(C#N)(C#N)Cc1ccc(SC(F)(F)F)cc1 [Compound 41, 2-allyl-2-(4-(trifluoromethylthio)benzyl)malononitrile] | 100% | 100% | 100% |  |
| C=CCCC(C#N)(C#N)Cc1ccc(C(F)(F)F)cc1 [Compound 52, 2-(3-butenyl)-2-(4-(trifluoromethyl)benzyl)malononitrile] | 100% | 100% | 100% |  |
| C=CCC(C#N)(C#N)C(OC)c1ccc(Cl)cc1 (stereo not drawn) [Compound 84, 2-allyl-2-(4-chloro-α-methoxybenzyl)malononitrile] | 100% | 100% | 100% |  |

| SMILES | mortality at 3.5 µg/mL (Cullex pipiens pallens) | mortality at 500 ppm (Musca domestics) | mortality at 500 ppm (German cockroach) | number of surviving pests on the 6th day after [1] |
| --- | --- | --- | --- | --- |
| CC=CCC(C#N)(C#N)Cc1ccc(SC(F)(F)F)cc1 [Compound 46, 2-(2-butenyl)-2-(4-(trifluoromethylthio)benzyl)malononitrile] | 100% | 100% | 100% |  |
| C=CCCC(C#N)(C#N)Cc1ccc(C(F)(F)F)cc1Cl [Compound 60, 2-(3-butenyl)-2-(2-chloro-4-(trifluoromethyl)benzyl)malononitrile] | 100% | 100% | 100% |  |
| C=CCCCC(C#N)(C#N)Cc1ccc(C(F)(F)F)cc1 [Compound 79, 2-(4-pentenyl)-2-(4-(trifluoromethyl)benzyl)malononitrile] | 100% | 100% | 100% |  |
| CC#CCC(C#N)(C#N)Cc1ccc(OC(F)(F)F)cc1 [Compound 59, 2-(2-butynyl)-2-(4-(trifluoromethoxy)benzyl)malononitrile] | 100% | 100% | 100% |  |
| C=CCC(C#N)(C#N)C(C=C)c1ccc(OC(F)(F)F)cc1 (centres unmarked) [Compound 33, 2-allyl-2-(1-(4-(trifluoromethoxy)phenyl)-2-propenyl)malononitrile] | 100% | 100% | 100% |  |
| CC(C#N)(C#N)Cc1ccc(Cl)cc1 [Compound 68, 2-(4-chlorobenzyl)-2-methylmalononitrile] | 100% | 100% | 100% |  |
| C=CCC(C#N)(C#N)C(CCl)c1ccc(OC(F)(F)F)cc1 (centres unmarked) [Compound 31, 2-allyl-2-(1-(4-(trifluoromethoxy)phenyl)-2-chloroethyl)malononitrile] | 100% | 100% | 100% |  |
| C=CC(C)C(C#N)(C#N)Cc1ccc(Cl)cc1 (centres unmarked) [Compound 22, 2-(4-chlorobenzyl)-2-(1-methyl-2-propenyl)malononitrile] | 100% | 100% |  | 0 |
| C=CCC(C#N)(C#N)Cc1ccc(Cl)cc1Cl [Compound 24, 2-allyl-2-(2,4-dichlorobenzyl)malononitrile] | 100% | 100% |  | 0 |
| C=CCC(C#N)(C#N)C(C#N)c1ccc(OC(F)(F)F)cc1 (stereo not drawn) [Compound 55, 2-allyl-2-(4-(trifluoromethoxy)-α-cyanobenzyl)malononitrile] | 100% | 100% | 100% |  |
| C=CCC(C#N)(C#N)Cc1c(F)cc(F)cc1F [Compound 120, 2-allyl-2-(2,4,6-trifluorobenzyl)malononitrile] |  | 100% | 100% |  |
| C=CCC(C#N)(C#N)C(C)c1ccc(OC(F)(F)F)cc1 (centres unmarked) [Compound 30, 2-allyl-2-(1-(4-(trifluoromethoxy)phenyl)ethyl)malononitrile] | 100% | 100% | 100% |  |
| CC(C)CC(C#N)(C#N)Cc1ccc(Cl)cc1 [Compound 19, 2-(4-chlorobenzyl)-2-isobutylmalononitrile] | 100% |  |  | 0 |
| C=CCC(C#N)(C#N)C(C#N)c1ccc(SC(F)(F)F)cc1 (stereo not drawn) [Compound 56, 2-allyl-2-(4-(trifluoromethylthio)-α-cyanobenzyl)malononitrile] | 100% | 100% | 100% |  |
| CC(C)CC(C#N)(C#N)Cc1ccc(C(F)(F)F)cc1 [Compound 110, 2-(2-methylpropyl)-2-(4-(trifluoromethyl)benzyl)malononitrile] | 100% | 100% | 100% |  |
| C=CCC(C#N)(C#N)C(OC)c1ccc(OC(F)(F)F)cc1 (stereo not drawn) [Compound 39, 2-allyl-2-(4-(trifluoromethoxy)-α-methoxybenzyl)malononitrile] | 100% | 100% | 100% |  |
| C=CCCC(C#N)(C#N)C(C=C)c1ccc(OC(F)(F)F)cc1 (centres unmarked) [Compound 32, 2-(3-butenyl)-2-(1-(4-(trifluoromethoxy)phenyl)-2-propenyl)malononitrile] | 100% | 100% | 100% |  |
| C=CCCC(C#N)(C#N)C(c1ccc(OC(F)(F)F)cc1)C(C)C (centres unmarked) [Compound 12] |  |  |  | 0 |
